{"source": "patent US10131661B2", "about": "“High-solubility acetone-added pyrroloquinoline quinone salt” (Mitsubishi Gas Chemical Company, Inc., priority 2015, dated 2018)", "key": {"[1]": {"experiment": "Storage stability in a solid state, visual check after 1 month", "assay_type": "physicochemical", "procedure": "The HOP alkali metal salt fabricated in each Example was subjected to cold storage (4° C.) and room-temperature storage (23° C.) in a solid state, and changes after a lapse of 1 month were visually checked."}, "[2]": {"tested_on": "Human uterine cancer cells, HeLa cells", "experiment": "Cell activity test (cell number by Cell Counting Kit 8)", "assay_type": "cell-based", "settings": "2 days", "procedure": "Human uterine cancer cells, HeLa cells, were scattered on 96 wells so as to be 1,000 cells/well, and were cultivated in a DMEM (Invitrogen Corp.)+10% FBS culture medium under the condition of a 5% CO2 concentration and 37° C. in an incubator for one night. Thereafter, the HOP alkali metal salt fabricated in each Example was added to the culture medium so that the concentration of the HOP alkali metal salt became 4.9 mg/L and 19.5 mg/L. Further the cultivation was continued further for 2 days, and thereafter, the culture medium was removed from the wells; the well interiors were washed; and the number of the cells in the wells were measured by using a Cell Counting Kit 8 manufactured by Dojindo Laboratories. There are shown in the following Table the results in the case where the number of the cells when no HOP alkali metal salt was added to the culture medium was taken to be 100."}, "physchem": {"experiment": "physchem", "settings": "30 °C, water, thermodynamic from solid", "method": "(§1) Water in such an amount that the HOP alkali metal salt fabricated in each Example remained undissolved was added to 100 mg of the HOP alkali metal salt. The resultant solution was allowed to stand still at 30° C. for 1 hour or more. Then, the solution was centrifugally separated to thereby separate a supernatant liquid and the HOP alkali metal salt remaining undissolved, and thereafter, the supernatant was diluted and the absorbance at 360 nm was measured. The solubility was calculated from the obtained absorbance."}, "[3]": {"experiment": "Chemical stability: color change on mixing with ascorbic acid aqueous solution", "assay_type": "physicochemical", "settings": "10 mg sample, 200 μl of 10 mass % ascorbic acid aqueous solution", "procedure": "[Chemical Stability] The HOP disodium fabricated in Example 1 and pyrroloquinoline quinone disodium were tested. 10 mg of the each sample was put in a test tube, and 200 μl of a 10 mass % ascorbic acid aqueous solution was mixed."}, "[4]": {"experiment": "Measurement of the solubility (30° C.) of a HOP alkali metal salt to water", "settings": "1 hour or more, absorbance at 360 nm", "method": "as §1"}}}
{"compound": "CC(=O)CC1(O)C(=O)c2cc(C(=O)[O-])[nH]c2-c2c(C(=O)[O-])cc(C(=O)[O-])nc21.[Li+].[Li+].[Li+]", "note": "(racemic) [HOP trilithium]", "values": [{"measurement": "Cold Storage (4° C.): visual change", "setting": "[1]", "result": "no change"}]}
{"compound": "CC(=O)CC1(O)C(=O)c2cc(C(=O)[O-])[nH]c2-c2c(C(=O)[O-])cc(C(=O)[O-])nc21.[Na+].[Na+].[Na+]", "note": "(racemic) [HOP trisodium]", "values": [{"measurement": "Cold Storage (4° C.): visual change", "setting": "[1]", "result": "no change"}, {"measurement": "Room-Temperature Storage (23° C.): visual change", "setting": "[1]", "result": "change to brown"}, {"measurement": "number of the cells (no addition taken to be 100)", "setting": "[2]; 4.9 mg/L", "result": 128}, {"measurement": "number of the cells (no addition taken to be 100)", "setting": "[2]; 19.5 mg/L", "result": 121}]}
{"compound": "CC(=O)CC1(O)C(=O)c2cc(C(=O)O)[nH]c2-c2c(C(=O)O)cc(C(=O)O)nc21", "note": "(centres unmarked) [HOP free form, 5-Hydroxy-4-oxo-5-(2-oxopropyl)-4,5-dihydro-1H-pyrrolo[2,3-f]quinoline-2,7,9-tricarboxylic acid, reference compound]", "values": [{"measurement": "Cold Storage (4° C.): visual change", "setting": "[1]", "result": "no change"}, {"measurement": "number of the cells (no addition taken to be 100)", "setting": "[2]; 4.9 mg/L", "result": 95}, {"measurement": "number of the cells (no addition taken to be 100)", "setting": "[2]; 19.5 mg/L", "result": 103}, {"measurement": "solubility", "setting": "physchem", "result": 2.9, "unit": "mM"}]}
{"compound": "CC(=O)CC1(O)C(=O)c2cc(C(=O)[O-])[nH]c2-c2c(C(=O)[O-])cc(C(=O)[O-])nc21.[K+].[K+].[K+]", "note": "(centres unmarked) [HOP tripotassium]", "values": [{"measurement": "Cold Storage (4° C.): visual change", "setting": "[1]", "result": "no change"}]}
{"compound": "O=C(O)c1cc(C(=O)O)c2c(n1)C(=O)C(=O)c1cc(C(=O)O)[nH]c1-2.[Na].[Na]", "note": "[PQQ disodium, pyrroloquinoline quinone disodium, reference compound]", "values": [{"measurement": "color change with ascorbic acid", "setting": "[3]", "result": "changed in the color to black"}, {"measurement": "solubility", "setting": "physchem", "result": 7.5, "unit": "mM"}]}
{"compound": "O=C(O)c1cc(C(=O)O)c2c(n1)C(=O)C(=O)c1cc(C(=O)O)[nH]c1-2", "note": "[PQQ free form, pyrroloquinoline quinone]", "values": [{"measurement": "solubility", "setting": "physchem", "result": 1, "unit": "mM"}]}
{"compound": "O=C(O)c1cc(C(=O)O)c2c(n1)C(=O)C(=O)c1cc(C(=O)O)[nH]c1-2", "note": "[PQQ trisodium, reference compound]", "values": [{"measurement": "Saturated Solubility", "setting": "[4]", "result": 35, "unit": "mM"}]}
{"compound": "HOP 2.5 sodium", "values": [{"measurement": "Cold Storage (4° C.): visual change", "setting": "[1]", "result": "no change"}, {"measurement": "Room-Temperature Storage (23° C.): visual change", "setting": "[1]", "result": "no change"}]}
{"compound": "HOP 2.9 sodium", "values": [{"measurement": "Cold Storage (4° C.): visual change", "setting": "[1]", "result": "no change"}, {"measurement": "Room-Temperature Storage (23° C.): visual change", "setting": "[1]", "result": "no change"}]}
{"compound": "HOP dilithium", "values": [{"measurement": "Cold Storage (4° C.): visual change", "setting": "[1]", "result": "no change"}, {"measurement": "Room-Temperature Storage (23° C.): visual change", "setting": "[1]", "result": "no change"}]}
{"compound": "HOP dipotassium", "values": [{"measurement": "Cold Storage (4° C.): visual change", "setting": "[1]", "result": "no change"}, {"measurement": "Room-Temperature Storage (23° C.): visual change", "setting": "[1]", "result": "no change"}]}
{"compound": "HOP disodium", "values": [{"measurement": "Cold Storage (4° C.): visual change", "setting": "[1]", "result": "no change"}, {"measurement": "Room-Temperature Storage (23° C.): visual change", "setting": "[1]", "result": "no change"}, {"measurement": "number of the cells (no addition taken to be 100)", "setting": "[2]; 4.9 mg/L", "result": 116}, {"measurement": "number of the cells (no addition taken to be 100)", "setting": "[2]; 19.5 mg/L", "result": 130}, {"measurement": "color change with ascorbic acid", "setting": "[3]", "result": "no large change in the color"}, {"measurement": "Saturated Solubility", "setting": "[4]", "result": 290, "unit": "mM"}]}
{"compound": "HOP disodium hydrogen carbonate cocrystal", "values": [{"measurement": "Cold Storage (4° C.): visual change", "setting": "[1]", "result": "no change"}, {"measurement": "Room-Temperature Storage (23° C.): visual change", "setting": "[1]", "result": "no change"}]}
{"compound": "HOP trisodium hydrogen carbonate cocrystal", "values": [{"measurement": "Cold Storage (4° C.): visual change", "setting": "[1]", "result": "no change"}, {"measurement": "Room-Temperature Storage (23° C.): visual change", "setting": "[1]", "result": "no change"}]}
